Results: US4252808A, “β-Lactam antibacterial agents, their use in pharmaceutical compositions, the process for their preparation and intermediates for use in that process” (Beecham Group Limited, priority 1978, dated 1981)
Converted amounts (≈) assume the structure as drawn. Counter-ions that a name gives are not always drawn.

Assays:
Assay type in all cases: cell-based
[1] = system: E. coli JT 1; test: MIC, nutrient broth (10^-4 dilution); details: Escherichia coli, JT1
[2] = system: E. coli NCTC 10418; test: MIC, nutrient broth (10^-4 dilution); details: Escherichia coli, NCTC10418
[3] = system: Staph. aureus Oxford; test: MIC, nutrient broth (10^-4 dilution); details: Staphylococcus aureus
[4] = system: Staph. aureus Russell; test: MIC, nutrient broth (10^-4 dilution); details: Staphylococcus aureus, Staph. aureus Russell (lactamase producing strain)
Source text: *Lactamase producing strains
*Lactamase producing strain

[5] = system: β-Haemolytic Strep CN10; test: MIC, nutrient agar
[6] = system: Staph. aureus Russell; test: MIC, nutrient agar; details: Staphylococcus aureus, Staph. aureus Russell (lactamase-producing strain)
Source text: *Lactamase-producing strain
*lactamase producing strain

[7] = system: Staph. aureus Oxford; test: MIC, nutrient agar; details: Staphylococcus aureus
[8] = system: B. subtilis; test: MIC, nutrient agar; details: Bacillus subtilis
[9] = system: E. coli NCTC 10418; test: MIC, nutrient broth; details: Escherichia coli, NCTC10418
[10] = system: E. coli JT 1; test: MIC, nutrient broth; details: Escherichia coli, JT1
[11] = system: Staph. aureus Oxford; test: MIC, nutrient broth; details: Staphylococcus aureus
[12] = system: Staph. aureus Russell; test: MIC, nutrient broth; details: Staphylococcus aureus, Staph. aureus Russell (lactamase producing strain)
Source text: | *lactamase producing strain

[13] = system: P. rettgeri; test: MIC, nutrient agar; details: Providencia rettgeri
[14] = system: P. mirabilis C977; test: MIC, nutrient agar; details: Proteus mirabilis
[15] = system: Klebsiella aerogenes A; test: MIC, nutrient agar
[16] = system: Enterobacter cloacae Nl; test: MIC, nutrient agar
[17] = system: Ps. aeruginosa Dalgleish; test: MIC, nutrient agar; details: Pseudomonas aeruginosa, Ps. aeruginosa Dalgleish 10^-2
[18] = system: P. morganii; test: MIC, nutrient agar; details: Morganella morganii
[19] = system: E. coli JT 4; test: MIC, nutrient agar; details: Escherichia coli, JT4

MIC [1] [µg/mL] | MIC [2] [µg/mL] | MIC [3] [µg/mL] | MIC [4] [µg/mL] | MIC [6] [µg/mL] | MIC [7] [µg/mL] | MIC [8] [µg/mL] | Compound | MIC [5] [µg/mL] | also measured
125 (≈ 290 µM) | 125 (≈ 290 µM) | 31 (≈ 71.9 µM) | 125 (≈ 290 µM) | – | – | – | O=C(O)C1=Cc2c(-c3ccccc3)nnn2[C@@H]2[C@H](NC(=O)[C@H](O)c3ccccc3)C(=O)N12 [Compound 18, (3aR,4S) 4,5-Dihydro-5-oxo-9-phenyl-4-D-mandelylamino-3aH-azeto-[1,2a]v-triazolo[3,4-c]pyrimidine-7-carboxylic acid] | – | –
– | – | – | – | 50 (≈ 141 µM) | 10 (≈ 28.1 µM) | 2.5 (≈ 7.04 µM) | O=C(COc1ccccc1)N[C@@H]1C(=O)N2C(C(=O)O)=Cc3cnnn3[C@H]12 [Compound 11, (3aR,4S)4,5-dihydro-5-oxo-4-phenoxyacetamido-3aH-azeto-[1,2-a]v-triazolo[3,4-c]pyrimidine-7-carboxylic acid] | 10 (≈ 28.1 µM) | –
– | – | – | – | – | – | – | O=C(COc1ccccc1)N[C@@H]1C(=O)N2C(C(=O)O)=Cc3c(-c4ccc([N+](=O)[O-])cc4)nnn3[C@H]12 [Compound 33, (3aR,4S) 4,5-Dihydro-5-oxo-9-p-nitrophenyl-4-phenoxy-acetamido-3aH azeto[1,2-a]v-triazolo[3,4-c]pyrimidine-7-carboxylic acid] | – | MIC [9]: 500 µg/mL (≈ 1050 µM); MIC [10]: 500 µg/mL (≈ 1050 µM); MIC [11]: 16 µg/mL (≈ 33.6 µM); MIC [12]: 31 µg/mL (≈ 65.1 µM)
– | – | – | – | 5 (≈ 13.5 µM) | 2.5 (≈ 6.77 µM) | < 0.2 | CC1=C(C(=O)O)N2C(=O)[C@@H](NC(=O)COc3ccccc3)[C@H]2n2nncc21 [Compound 41, (3aR,4S) 4,5-Dihydro-5-oxo-8-methyl-4-phenoxyacetamido-3aH azeto[1,2-a]v-triazolo[3,4-c]pyrimidine-7-carboxylate acid] | 0.5 (≈ 1.35 µM) | MIC [13]: 100 µg/mL (≈ 271 µM); MIC [14]: > 100 µg/mL; MIC [15]: 100 µg/mL (≈ 271 µM); MIC [16]: 100 µg/mL (≈ 271 µM); MIC [17]: 100 µg/mL (≈ 271 µM); MIC [18]: > 100 µg/mL; MIC [19]: 100 µg/mL (≈ 271 µM)
125 | 125 | 62 | 125 | – | – | – | N[C@@H](C(=O)N[C@@H]1C(=O)N2C(C(=O)O)=Cc3c(-c4ccccc4)nnn3[C@H]12)c1ccccc1 [Compound 24, (3aR,4S)-4,5-Dihydro-5-oxo-9-phenyl-4-D-α-phenylglycylamino-3aH-azeto[1,2-a]v-triazolo [3,4-c]pyrimidine-7-carboxylic acid, trifluoroacetic acid salt] | – | –
